Test results taken from US20250243245A1 (priority 2022, published 2025).
Where a SMILES comes first, the peptide text is derived from it.

System: E. coli strain BL21
Details: BL21, 24 h

SMILES: CC(C)C[C@H](NC(=O)[C@H](Cc1c[nH]cn1)NC(=O)[C@H](C)NC(=O)[C@H](CCCCN)NC(=O)[C@H](CO)NC(=O)CNC(=O)[C@H](CCC(=O)O)NC(=O)[C@H](CC(C)C)NC(=O)[C@H](CO)NC(=O)[C@H](CCCCN)NC(=O)[C@H](CC(C)C)NC(=O)[C@H](CCCCN)NC(=O)[C@H](CCC(N)=O)NC(=O)[C@H](CC(C)C)NC(=O)[C@H](CC(C)C)NC(=O)[C@H](CCC(=O)O)NC(=O)[C@H](CCC(=O)O)NC(=O)[C@@H]1CCCN1C(=O)[C@H](CCCNC(=N)N)NC(=O)[C@@H](N)CCCCN)C(=O)N[C@@H](CCC(N)=O)C(=O)N[C@@H](Cc1c[nH]cn1)C(=O)N[C@@H](Cc1c[nH]cn1)C(=O)N[C@@H](CC(=O)O)C(=O)N[C@@H](Cc1c[nH]c2ccccc12)C(=O)N[C@H](C(=O)N[C@@H](CO)C(=O)N[C@@H](CCCCN)C(=O)O)[C@@H](C)O [UGK-41] (H-KRPEELLQKLKSLEGSKAHLQHHDWTSK-OH; N-terminus and C-terminus assumed)
- MIC: >20 mM

SMILES: CC(C)C[C@H](NC(=O)[C@H](CO)NC(=O)[C@H](CCCCN)NC(=O)[C@H](CC(C)C)NC(=O)[C@H](CCCCN)NC(=O)[C@H](CCC(N)=O)NC(=O)[C@H](CC(C)C)NC(=O)[C@H](CC(C)C)NC(=O)[C@H](CCC(=O)O)NC(=O)[C@H](CCC(=O)O)NC(=O)[C@H](CC(C)C)NC(=O)[C@H](CCCNC(=N)N)NC(=O)[C@H](CCCCN)NC(=O)[C@@H]1CCCN1C(=O)[C@@H](N)CC(C)C)C(=O)N[C@@H](CCC(=O)O)C(=O)NCC(=O)N[C@@H](CO)C(=O)N[C@@H](CCCCN)C(=O)N[C@@H](C)C(=O)N[C@@H](Cc1c[nH]cn1)C(=O)N[C@@H](CCC(=O)O)C(=O)N[C@@H](CCCCN)C(=O)N[C@@H](CC(C)C)C(=O)N[C@@H](Cc1c[nH]cn1)C(=O)N[C@@H](CC(=O)O)C(=O)N[C@@H](Cc1c[nH]c2ccccc12)C(=O)N[C@H](C(=O)N[C@@H](CCCNC(=N)N)C(=O)N[C@@H](CCCCN)C(=O)O)[C@@H](C)O [UGK-45] (H-LPKRLEELLQKLKSLEGSKAHEKLHDWTRK-OH; N-terminus and C-terminus assumed)
- MIC: >20 mM

SMILES: CC(C)C[C@H](NC(=O)[C@H](CO)NC(=O)[C@H](CCCCN)NC(=O)[C@H](CC(C)C)NC(=O)[C@H](CCCCN)NC(=O)[C@H](CCC(=O)O)NC(=O)[C@H](CC(C)C)NC(=O)[C@H](CC(C)C)NC(=O)[C@H](CCC(=O)O)NC(=O)[C@H](CCC(=O)O)NC(=O)[C@H](CC(C)C)NC(=O)[C@H](CCCNC(=N)N)NC(=O)[C@H](CCCCN)NC(=O)[C@@H]1CCCN1C(=O)[C@@H](N)CCC(N)=O)C(=O)N[C@@H](CCC(=O)O)C(=O)NCC(=O)N[C@@H](CO)C(=O)N[C@@H](CCCCN)C(=O)N[C@@H](C)C(=O)N[C@@H](Cc1c[nH]cn1)C(=O)N[C@@H](CCC(=O)O)C(=O)N[C@@H](CCCCN)C(=O)N[C@@H](CC(C)C)C(=O)N[C@@H](Cc1c[nH]cn1)C(=O)N[C@@H](CC(=O)O)C(=O)N[C@@H](Cc1c[nH]c2ccccc12)C(=O)N[C@H](C(=O)N[C@@H](CCCNC(=N)N)C(=O)N[C@@H](CCCCN)C(=O)O)[C@@H](C)O [UGK-49] (H-QPKRLEELLEKLKSLEGSKAHEKLHDWTRK-OH; N-terminus and C-terminus assumed)
- MIC: >20 mM
